Assay [1] concerns the target T1, recombinant USP1 protein (Homo sapiens, UniProt O94782, DEL125-138/DEL229-408/DEL608-737).
T1 sequence (O94782 with tags, fused parts or gaps DEL125-138/DEL229-408/DEL608-737): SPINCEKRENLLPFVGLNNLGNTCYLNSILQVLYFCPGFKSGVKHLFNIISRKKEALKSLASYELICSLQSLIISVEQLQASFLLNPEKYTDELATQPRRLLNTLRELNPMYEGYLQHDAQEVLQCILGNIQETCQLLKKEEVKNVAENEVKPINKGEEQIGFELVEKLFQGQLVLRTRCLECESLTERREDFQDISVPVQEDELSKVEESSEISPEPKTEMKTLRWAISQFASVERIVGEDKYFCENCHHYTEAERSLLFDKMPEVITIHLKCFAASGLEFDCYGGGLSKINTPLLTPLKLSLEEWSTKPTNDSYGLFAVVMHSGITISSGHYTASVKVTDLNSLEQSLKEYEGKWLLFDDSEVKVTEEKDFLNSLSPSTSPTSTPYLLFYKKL
As to the kind of experiment: Binding affinity to recombinant USP1 protein by differential scanning fluorimetry. Conditions: compound 100 µM; 0.03 mg/mL USP1 (Δ1-66, Δ125-138, Δ229-408, Δ608-737); Tm with compound minus Tm with DMSO; read-out: ΔTm (°C). Put shortly: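 Thermal shift readout: ΔTm is the compound-well melting temperature less the DMSO-well value, measured by real-time PCR. Compounds tested at 100 µM final against 0.03 mg/mL truncated USP1 (Δ1-66, Δ125-138, Δ229-408, Δ608-737) in pH 8.0 Tris buffer containing 150 mM NaCl, 2% glycerol, 1 mM DTT.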
(In general: Differential scanning fluorimetry follows unfolding on heating by fluorescence.)

For assay [2], the system named is UWB1.289 cells. The experiment in a line: Cell proliferation inhibitory activity in BRCA1/2-mutant or HRD-positive cells (Cell Titer-Glo). Format: cell-based. The following applies: UWB1289; UWB1.289 cells, 144 hours after compound treatment, Cell Titer-Glo, 1.5 nM to 10 µM; read-out: GI50 UWB1.289 BRCA1 mut. Put shortly:
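GI50 from CellTiter-Glo luminescence after 144 h compound exposure at 37 °C. Cells seeded at 1,000 per well in MEBM/RPMI1640 mix 16–24 h beforehand; […] from 10 µM down to 1.5 nM final (3-fold steps).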

For `COc1ncnc(C2CC2)c1-c1ncc2cc(C(=O)N[C@@H]3CCN(C4COC4)C[C@@H]3F)n(Cc3ccc(-c4nc(C(F)(F)F)cn4C)cc3)c2n1` [Example 216, 2-(4-cyclopropyl-6-methoxypyrimidin-5-yl)-N-((3S,4R)-3-fluoro-1-(oxetan-3-yl)piperidin-4-yl)-7-(4-(1-methyl-4-(trifluoromethyl)-1H-imidazol-2-yl)benzyl) -7H-pyrrolo[2,3-d]pyrimidine-6-carboxamide], the ΔTm (in general, the shift of the melting midpoint relative to a reference) at 100 µM in assay [1] was over 5 °C. Also, in assay [2], the GI50 (as a rule, the concentration at which growth is held to half of that of the control) lay in the range of 100 to 500 nM.
With `COc1ncnc(C2CC2)c1-c1ncc2cc(C(=O)N[C@@H]3CN(C)C[C@@H]3F)n(Cc3ccc(-c4nc(C(F)(F)F)cn4C)cc3)c2n1` [Example 217, 2-(4-cyclopropyl-6-methoxypyrimidin-5-yl)-N-((3R,4S)-4-fluoro-1-methylpyrrolidin-3-yl)-7-(4-(1-methyl-4-(trifluoromethyl)-1H-imidazol-2-yl)benzyl) -7H-pyrrolo[2,3-d]pyrimidine-6-carboxamide], the ΔTm at 100 µM in assay [1] was over 5 °C. In addition, the GI50 in assay [2] was under 100 nM.
With `COc1ncnc(C2CC2)c1-c1ncc2cc(C(=O)N[C@@H]3CN(C)C[C@H]3F)n(Cc3ccc(-c4nc(C(F)(F)F)cn4C)cc3)c2n1` [Example 218, 2-(4-cyclopropyl-6-methoxypyrimidin-5-yl) -N-((3R,4R)-4-fluoro-1-methylpyrrolidin-3-yl)-7-(4-(1-methyl-4-(trifluoromethyl)-1H-imidazol-2-yl)benzyl)-7H-pyrrolo[2,3-d]pyrimidine-6-carboxamide], the ΔTm at 100 µM in assay [1] is over 5 °C. Moreover, the GI50 in assay [2] was under 100 nM.
On to `COc1ncnc(C2CC2)c1-c1ncc2cc(C(=O)N[C@@H]3CCN(C)C[C@@H]3F)n(Cc3ccc(-c4nc(C(F)(F)F)cn4C(C)C)cc3)c2n1` [Example 219, 2-(4-cyclopropyl-6-methoxypyrimidin-5-yl)-N-((3S,4R)-3-fluoro-1-methylpiperidin-4-yl)-7-(4-(1-isopropyl-4-(trifluoromethyl)-1H-imidazol-2-yl)benzyl)-7H-pyrrolo[2,3-d]pyrimidine-6-carboxamide], for which the ΔTm at 100 µM in assay [1] is over 5 °C. The GI50 in assay [2] is under 100 nM.
With `COc1ncnc(C2CC2)c1-c1ncc2cc(C(=O)N[C@H]3CN(C)C[C@H]3F)n(Cc3ccc(-c4nc(C(F)(F)F)cn4C(C)C)cc3)c2n1` [Example 220, 2-(4-cyclopropyl-6-methoxypyrimidin-5-yl)-N-((3S,4R)-4-fluoro-1-methylpyrrolidin-3-yl)-7-(4-(1-isopropyl-4-(trifluoromethyl)-1H-imidazol-2-yl)benzyl)-7H-pyrrolo[2,3-d]pyrimidine-6-carboxamide], the ΔTm at 100 µM in assay [1] was over 5 °C. Moreover, in assay [2], the GI50 is under 100 nM.
`COc1ncnc(C2CC2)c1-c1ncc2cc(C(=O)N[C@@H]3CCN(C(C)C)C[C@@H]3F)n(Cc3ccc(-c4nc(C(F)(F)F)cn4C)cc3)c2n1` [Example 221, 2-(4-cyclopropyl-6-methoxypyrimidin-5-yl)-N-((3S,4R)-3-fluoro-1-isopropylpiperidin-4-yl)-7-(4-(1-methyl-4-(trifluoromethyl)-1H-imidazol-2-yl)benzyl)-7H-pyrrolo[2,3-d]pyrimidine-6-carboxamide]: in assay [1], the thermal shift (ΔTm) at 100 µM is over 5 °C. The GI50 in assay [2] was under 100 nM.
